Test [1] relates to 5-hmC levels in rectal tissues. The test can be described thus: 5-hmC affinity enrichment sequencing of pre- and post-treatment rectal tissues. The format is in vivo, human. Particulars: rectal tissue. Here is the method:
5-hmC alterations induced by Mg treatment. As mentioned, due to technological limitations, distinguishing 5-hmC from 5-mC has only recently been possible. Using the technology an evaluation was conducted of 5-hmC in normal rectal mucosa collected at baseline from 7 participants of the PPCCT. 5-hmC-specific affinity pull-down^142 samples were sequenced using the Illumina next-generation sequencing (50 bp single-end). The raw sequencing reads were mapped to the human genome reference (hg19) using Bowtie2^153. 5-hmC peaks (i.e. enriched 5-hmC regions) were then called using the MACS algorithm^154. There are two important findings. 1) There are approximately 13,000-15,000 high quality 5-hmC peaks across the genomes at p<1e-5 calculated by MACS.
Genome-wide 5-hmC was also measured in pre- (i.e. baseline) and post-treatment rectal tissues (i.e. after 3-month Mg supplementation). In this analysis, one individual was included in the treatment arm and the other in the placebo arm. Two-hundred ninety-six (296) and 1271 genes were found with ≥4-fold or ≥3-fold changes in 5-hmC levels from baseline, respectively, in the treatment arm compared to 39 and 176 in the placebo arm (Table 1). Thus, the treatment arm has a much larger number of affected genes than the placebo arm.
Furthermore, the majority of the changes found in 5-hmC caused by Mg treatment are up-modifications, very consistent with findings from in vitro and in vivo studies of vitamin C treatment^86;87.

Test [2] can be described thus: Magnesium tolerance test (MTT), percent Mg retention from 24-hour urine. It counts as in vivo, human. Particulars: after 12-week Mg supplementation, ongoing trial. An excerpt: In a magnesium tolerance test, a health care professional, such as a doctor, gives a participant a shot of a known amount of magnesium and then later uses the participant's urine to determine how much magnesium the participant's body retained, and how much the body eliminated.
In an exemplary study as described herein, participants who completed the study received a schedule of planned magnesium tolerance tests on two consecutive days. A 24-hour urine sample was collected for determining the basal urinary magnesium excretion prior to the intravenous infusion of magnesium sulfate. Another 24-hour urine sample was obtained starting with the IV infusion.
• 1. […] Percentage magnesium retained is calculated by the formula below (Mg: magnesium) […]
A Mg tolerance test, the most accurate approach to evaluate Mg nutriture, is conducted at the end of trial. […] For the Mg tolerance test, the participant's percent retention is calculated by the following formula: [1−(post infusion Mg excretion-pre infusion Mg excretion)/total Mg infused]×100. […]
MTT was conducted on 78 subjects in PPCCT. […] Urine magnesium level was measured using 7D70 Magnesium Reagent Kit from Abbot Laboratories (Abbott Park, TL). […] The absorbance of the arsenazo-magnesium complex is measured at 572 nm and is proportional to the concentration of magnesium present in the sample.

For test [3] the following is noted: 49 days of Mg repletion after 3-month Mg depletion, previous human study, from 0.81 to 0.86, p=0.06; cited from earlier work.
The subject of test [4] is embryonic stem cells. Particulars: vitamin C supplementation, cited from earlier work.
Test [5] relates to 5-hmC and 5-mC in tissues. The settings on record: vitamin C supplementation, all three tissues; cited from earlier work.
The mark [6] stands for this setting: treatment arm, one individual, after 3-month Mg supplementation.

`NCC(=O)[O-].NCC(=O)[O-].[Mg+2]` [Mg]: in test [1] (Mg treatment), the “Direction of the majority of changes in 5-hmC” value is “up-modifications”. In test [1] (setting [6]), the “Number of genes with ≥3-fold change in 5-hmC peaks from baseline” value is reported as 1271 and the “Number of genes with ≥4-fold change in 5-hmC peaks from baseline” value came to 296. Besides, in test [2], the “Individuals who still had Mg deficiency (retention ≥50% in Mg tolerance test)” value worked out at 42%. Also, in test [3], the “Increase in serum Mg” value was 6%.

Turning to `O=C1O[C@H]([C@@H](O)CO)C(O)=C1O` [vitamin C], the “Number of genes with over 2-fold changes in expression” value in test [4] (primarily up-modifications) is “approximately 200”. In test [4], the “Change in 5-hmC” value was “genome-wide increase in 5-hmC”. Moreover, the “5-hmC concentrations in tissues” value in test [5] is given as “significantly elevated”.

Source of the values: patent US12391990B2, “Determination of magnesium body concentration” (Vanderbilt University, priority 2019, dated 2025).
